According to ChEMBL document CHEMBL3879881, “Substituted pyrazolyl compounds for the treatment of inflammation” (2005):

Molecular target: T1, Inhibitor of nuclear factor kappa-B kinase subunit beta (Homo sapiens, UniProt O14920)
T1 sequence (O14920 whole entry): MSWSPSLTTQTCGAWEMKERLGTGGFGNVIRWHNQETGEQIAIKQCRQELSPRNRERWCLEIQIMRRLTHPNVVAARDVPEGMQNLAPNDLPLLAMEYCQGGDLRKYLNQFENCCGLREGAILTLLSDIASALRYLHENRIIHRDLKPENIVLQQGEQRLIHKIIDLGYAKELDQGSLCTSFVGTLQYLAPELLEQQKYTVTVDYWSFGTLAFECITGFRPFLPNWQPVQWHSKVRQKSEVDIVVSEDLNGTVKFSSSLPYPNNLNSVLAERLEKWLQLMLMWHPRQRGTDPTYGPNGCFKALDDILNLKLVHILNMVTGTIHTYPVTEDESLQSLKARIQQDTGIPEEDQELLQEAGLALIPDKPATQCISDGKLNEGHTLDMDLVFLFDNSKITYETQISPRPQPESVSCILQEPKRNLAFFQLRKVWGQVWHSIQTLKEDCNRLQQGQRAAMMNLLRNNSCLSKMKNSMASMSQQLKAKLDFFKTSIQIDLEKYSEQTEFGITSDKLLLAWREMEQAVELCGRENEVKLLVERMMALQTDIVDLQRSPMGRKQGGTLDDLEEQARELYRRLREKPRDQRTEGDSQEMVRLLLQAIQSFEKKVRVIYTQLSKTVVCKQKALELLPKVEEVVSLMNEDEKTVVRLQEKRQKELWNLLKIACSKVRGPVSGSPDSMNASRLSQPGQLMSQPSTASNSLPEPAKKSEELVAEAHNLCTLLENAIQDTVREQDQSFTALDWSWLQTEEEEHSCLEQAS
Assay: Inhibition of human recombinant C-terminal FLAG-epitope-tagged IKK2 expressed in baculovirus using biotinylated IkappaBalpha peptide as substrate assessed as decrease in [gamma-33P]-ATP incorporation in substrate after 30 mins by scintillation counting method

Row | SMILES | IC50 [nM]
1 | CCCS(=O)(=O)c1ccc(-n2nc(C(N)=O)c3c2-c2cc(NS(C)(=O)=O)ccc2CC3)cc1 | 1000 to 10000
2 | CN(C)S(=O)(=O)c1ccc(-n2nc(C(N)=O)c3c2-c2cc(NC(=O)c4cccc(Cl)c4)ccc2CC3)cc1 | 1000 to 10000
3 | CS(=O)(=O)c1ccc(-n2nc(C(N)=O)c3c2-c2cc(NC(=O)c4cc(Cl)ncc4Cl)ccc2CC3)cc1 | ≤ 1000
4 | CC1Cc2c(C(N)=O)nn(-c3ccc(F)cc3)c2-c2cc(NC(=O)c3ccncc3Cl)ccc21 (stereo not drawn) | ≤ 1000
5 | CN1CCN(c2cc(C(=O)Nc3ccc4c(c3)-c3c(c(C(N)=O)nn3-c3ccc(S(C)(=O)=O)cc3)CC4)c(Cl)cn2)CC1 | ≤ 1000
6 | CC1Cc2c(C(N)=O)nn(-c3ccc(F)cc3F)c2-c2cc(NC(=O)c3ccncc3Cl)ccc21 (stereo not drawn) | ≤ 1000
7 | NC(=O)c1nn(-c2ccc(F)cc2)c2c1CCc1ccc(NC(=O)c3cc(N4CCN(CCO)CC4)ncc3Cl)cc1-2 | ≤ 1000
8 | NC(=O)c1nn(-c2ccc3c(c2)OCO3)c2c1CCc1ccc(NC(=O)c3nc(CN4CCOCC4)ccc3Cl)cc1-2 | ≤ 1000
9 | NC(=O)c1nn(-c2ccc(F)cc2)c2c1CCc1ccc(NC(=O)c3cc(-c4ccncc4)ncc3Cl)cc1-2 | ≤ 1000
10 | NC(=O)c1nn(-c2ccc(S(=O)(=O)N3CCOCC3)cc2)c2c1CCc1ccc(N)cc1-2 | 1000 to 10000
11 | CCCS(=O)(=O)c1ccc(-n2nc(C(N)=O)c3c2-c2cc(NC(=O)c4cc(N)ccc4Cl)ccc2CC3)cc1 | ≤ 1000
12 | CCCS(=O)(=O)c1ccc(-n2nc(C(N)=O)c3c2-c2cc(NC(=O)c4cccnc4Cl)ccc2CC3)cc1 | 1000 to 10000
13 | CC(=O)c1ccc(-n2nc(C(N)=O)c3c2-c2cc(NC(=O)c4cccnc4Cl)ccc2CC3)cc1 | 1000 to 10000
14 | NC(=O)c1nn(-c2ccc(F)cc2)c2c1CCc1ccc(NC(=O)c3cc(CCN4CCOCC4)ncc3Cl)cc1-2 | ≤ 1000
15 | N#Cc1cc(C(=O)Nc2ccc3c(c2)-c2c(c(C(N)=O)nn2-c2ccc(F)cc2)CC3)c(Cl)cn1 | ≤ 1000
16 | NC(=O)c1nn(-c2ccc3c(c2)OCO3)c2c1CCc1ccc(NC(=O)c3cc(CCN4CCOCC4)ncc3Cl)cc1-2 | ≤ 1000
17 | C[S+]([O-])c1ccc(-n2nc(C(N)=O)c3c2-c2cc(NC(=O)c4cccnc4Cl)ccc2CC3)cc1 (stereo not drawn) | ≤ 1000
18 | CC1Cc2c(C(N)=O)nn(-c3ccc(F)cc3)c2-c2cc(NC(=O)c3cccnc3Cl)ccc21 (stereo not drawn) | ≤ 1000
19 | C[S+]([O-])c1ccc(-n2nc(C(N)=O)c3c2-c2cc(NS(C)(=O)=O)ccc2CC3)cc1 (stereo not drawn) | 1000 to 10000
20 | CCCS(=O)(=O)c1ccc(-n2nc(C(N)=O)c3c2-c2cc(N)ccc2CC3)cc1 | 1000 to 10000

Row | SMILES | IC50 [nM]
21 | CCCS(=O)(=O)c1ccc(-n2nc(C(N)=O)c3c2-c2cc(NC(=O)c4cc(NC(=O)OC(C)(C)C)ccc4Cl)ccc2CC3)cc1 | 1000 to 10000
22 | CSc1ccc(-n2nc(C(N)=O)c3c2-c2cc(NC(=O)c4ccccc4Cl)ccc2CC3)cc1 | 1000 to 10000
23 | NC(=O)c1nn(-c2ccc(S(=O)(=O)N3CC=CC3)cc2)c2c1CCc1ccc(N)cc1-2 | 1000 to 10000
24 | C#CCN(CC#C)S(=O)(=O)c1ccc(-n2nc(C(N)=O)c3c2-c2cc(NC(=O)c4ccccc4Cl)ccc2CC3)cc1 | 1000 to 10000
25 | CN1CC=C(c2cc(C(=O)Nc3ccc4c(c3)-c3c(c(C(N)=O)nn3-c3ccc(F)cc3)CC4)c(Cl)cn2)CC1 | ≤ 1000
26 | CN(C)CCNS(=O)(=O)c1ccc(-n2nc(C(N)=O)c3c2-c2cc(N)ccc2CC3)cc1 | 1000 to 10000
27 | CN(C)CCc1cc(C(=O)Nc2ccc3c(c2)-c2c(c(C(N)=O)nn2-c2ccc(F)cc2)CC3)c(Cl)cn1 | ≤ 1000
28 | CC(=O)Nc1ccc2c(c1)-c1c(c(C(N)=O)nn1-c1ccc(S(=O)(=O)N(C)C)cc1)CC2 | 1000 to 10000
29 | C=CCN(CC=C)S(=O)(=O)c1ccc(-n2nc(C(N)=O)c3c2-c2cc(NS(C)(=O)=O)ccc2CC3)cc1 | 1000 to 10000
30 | CNCC(=O)Nc1ccc2c(c1)-c1c(c(C(N)=O)nn1-c1ccc3c(c1)OCO3)CC2 | 1000 to 10000
31 | CC1Cc2c(C(N)=O)nn(-c3ccc(F)cc3)c2-c2cc(NC(=O)c3cc(N4CCN(C)CC4)ccc3Cl)ccc21 (stereo not drawn) | ≤ 1000
32 | C[S+]([O-])c1ccc(-n2nc(C(N)=O)c3c2-c2cc(NC(=O)c4ccncc4Cl)ccc2CC3)cc1 (stereo not drawn) | ≤ 1000
33 | C[S+]([O-])c1ccc(-n2nc(C(N)=O)c3c2-c2cc(NC(=O)c4ccccc4Cl)ccc2CC3)cc1 (stereo not drawn) | ≤ 1000
34 | CCS(=O)(=O)c1ccc(-n2nc(C(N)=O)c3c2-c2cc(NS(C)(=O)=O)ccc2CC3)cc1 | 1000 to 10000
35 | Cc1cc(Cl)ncc1C(=O)Nc1ccc2c(c1)-c1c(c(C(N)=O)nn1-c1ccc3c(c1)OCO3)CC2 | ≤ 1000
36 | C[S+]([O-])c1ccc(-n2nc(C(N)=O)c3c2-c2cc(NC(=O)c4cc(N)ccc4Cl)ccc2CC3)cc1 (stereo not drawn) | ≤ 1000
37 | NCc1ccc(Cl)c(C(=O)Nc2ccc3c(c2)-c2c(c(C(N)=O)nn2-c2ccc4c(c2)OCO4)CC3)n1 | 1000 to 10000
38 | NCc1cc(C(=O)Nc2ccc3c(c2)-c2c(c(C(N)=O)nn2-c2ccc4c(c2)OCO4)CC3)c(Cl)cn1 | ≤ 1000
39 | CC1Cc2c(C(N)=O)nn(-c3ccc(N)cc3F)c2-c2cc(NC(=O)c3ccncc3Cl)ccc21 (stereo not drawn) | ≤ 1000
40 | NC(=O)c1nn(-c2ccc(F)cc2)c2c1CCc1ccc(NC(=O)c3cc(CN4CCOCC4)ncc3Cl)cc1-2 | ≤ 1000

Row | SMILES | IC50 [nM]
41 | NC(=O)c1nn(-c2ccc3c(c2)OCO3)c2c1CCc1ccc(NC(=O)CNCC3CC3)cc1-2 | 1000 to 10000
42 | NC(=O)c1nn(-c2ccc(S(=O)(=O)CC3CC3)cc2)c2c1CCc1ccc(NC(=O)c3ccccc3Cl)cc1-2 | 1000 to 10000
43 | CC(O)c1ccc(-n2nc(C(N)=O)c3c2-c2cc(NC(=O)c4cccnc4Cl)ccc2CC3)cc1 (stereo not drawn) | ≤ 1000
44 | C[S+]([O-])c1ccc(-n2nc(C(N)=O)c3c2-c2cc(NC(=O)c4cc5c(cc4Cl)OCO5)ccc2CC3)cc1 (stereo not drawn) | ≤ 1000
45 | NC(=O)c1nn(-c2ccc3c(c2)OCO3)c2c1CCc1ccc(NC(=O)CNC3CCCCC3)cc1-2 | 1000 to 10000
46 | C#Cc1ccc(-n2nc(C(N)=O)c3c2-c2cc(NC(=O)c4cccnc4Cl)ccc2CC3)cc1 | 1000 to 10000
47 | NCCCS(=O)(=O)c1ccc(-n2nc(C(N)=O)c3c2-c2cc(NC(=O)c4cccnc4Cl)ccc2CC3)cc1 | 1000 to 10000
48 | N#Cc1cc(C(=O)Nc2ccc3c(c2)-c2c(c(C(N)=O)nn2-c2ccc4c(c2)OCO4)CC3)c(Cl)cn1 | ≤ 1000
49 | NC(=O)c1nn(-c2ccc3c(c2)OCO3)c2c1CCc1ccc(NC(=O)CN3CCCC3)cc1-2 | 1000 to 10000
50 | CCS(=O)(=O)c1ccc(-n2nc(C(N)=O)c3c2-c2cc(N)ccc2CC3)cc1 | 1000 to 10000
51 | N#Cc1ccc(Cl)c(C(=O)Nc2ccc3c(c2)-c2c(c(C(N)=O)nn2-c2ccc4c(c2)OCO4)CC3)n1 | 1000 to 10000
52 | CN(C)CCNS(=O)(=O)c1ccc(-n2nc(C(N)=O)c3c2-c2cc(NC(=O)c4ccccc4Cl)ccc2CC3)cc1 | ≤ 1000
53 | CCCCS(=O)(=O)c1ccc(-n2nc(C(N)=O)c3c2-c2cc(NC(=O)c4ccccc4Cl)ccc2CC3)cc1 | 1000 to 10000
54 | CN(C)CCNc1cc(C(=O)Nc2ccc3c(c2)-c2c(c(C(N)=O)nn2-c2ccc(F)cc2)CC3)c(Cl)cn1 | ≤ 1000
55 | C[C@@H]1CN(c2cc(C(=O)Nc3ccc4c(c3)-c3c(c(C(N)=O)nn3-c3ccc(F)cc3)CC4)c(Cl)cn2)CCN1 | ≤ 1000
56 | NC(=O)c1nn(-c2ccc(F)cc2)c2c1CCc1ccc(NC(=O)c3ccnc(N4CCOCC4)c3)cc1-2 | ≤ 1000
57 | NC(=O)c1nn(-c2ccc(F)cc2)c2c1CCc1ccc(NC(=O)c3cc(N4CCCNCC4)ncc3Cl)cc1-2 | ≤ 1000
58 | COCCN1CCN(c2cc(C(=O)Nc3ccc4c(c3)-c3c(c(C(N)=O)nn3-c3ccc(F)cc3)CC4)c(Cl)cn2)CC1 | ≤ 1000
